The values below are quoted from earlier work in patent publication US8497291B2 (Cyclacel Limited, priority 2005, dated 2013).

Like-named read-outs stand apart in the source and are kept apart here.

Series [1] deals with variety of cell lines, xenograft and metastatic cancer model.
For series [2] the following is noted: phase I, patients with a variety of cancers.
For series [3], the system named is colon cancer. The conditions noted are these: model of colon cancer.

As to `CCCCCCCCCCCCCCCC(=O)Nc1ccn([C@@H]2O[C@H](CO)[C@@H](O)[C@@H]2C#N)c(=O)n1` [CYC682, 2′-cyano-2′-deoxy-N^4-palmitoyl-1-β-D-arabinofuranosylcytosine], in series [1] (as demonstrated in EP 536936), the anti-tumour activity entry is “excellent anti-tumour activity”. In series [1] (variety of cell lines, xenograft and metastatic cancer model), the anti-tumour activity result is recorded as “potent anti-tumour activity”. Moreover, in series [2], the dose limiting toxicity result is reported as “myelosuppression” and the tolerability in humans result is “well tolerated”. Also, in series [3], the anticancer activity entry is “strong anticancer activity”, the “increasing survival compared with gemcitabine or 5-FU” value was “superior” and the “preventing the spread of colon cancer metastases to the liver compared with gemcitabine or 5-FU” value was “superior”.
